Test results published in patent US5444042A, “Method of treatment of neurodegeneration with calpain inhibitors” (Cortex Pharmaceuticals, priority 1994, dated 1995).
Where a SMILES comes first, the peptide text is derived from it. [ ]: non-standard residue; d: D form. The star is where a group is joined. Nle = CCCC[C@H](N)C(=O)O; Cbz = O=C(OCc1ccccc1)*; CH2Cl = ClC*

Tests used:
[1] = target: Calpain I (Rattus norvegicus, UniProt P97571); assay: Kapp/[I] progress curve method, rat Calpain I (Table 1C); format: biochemical; conditions: Suc-leu-tyr-amidomethylcoumarin
Sequence of Calpain I (Rattus norvegicus, UniProt P97571) (P97571 whole entry): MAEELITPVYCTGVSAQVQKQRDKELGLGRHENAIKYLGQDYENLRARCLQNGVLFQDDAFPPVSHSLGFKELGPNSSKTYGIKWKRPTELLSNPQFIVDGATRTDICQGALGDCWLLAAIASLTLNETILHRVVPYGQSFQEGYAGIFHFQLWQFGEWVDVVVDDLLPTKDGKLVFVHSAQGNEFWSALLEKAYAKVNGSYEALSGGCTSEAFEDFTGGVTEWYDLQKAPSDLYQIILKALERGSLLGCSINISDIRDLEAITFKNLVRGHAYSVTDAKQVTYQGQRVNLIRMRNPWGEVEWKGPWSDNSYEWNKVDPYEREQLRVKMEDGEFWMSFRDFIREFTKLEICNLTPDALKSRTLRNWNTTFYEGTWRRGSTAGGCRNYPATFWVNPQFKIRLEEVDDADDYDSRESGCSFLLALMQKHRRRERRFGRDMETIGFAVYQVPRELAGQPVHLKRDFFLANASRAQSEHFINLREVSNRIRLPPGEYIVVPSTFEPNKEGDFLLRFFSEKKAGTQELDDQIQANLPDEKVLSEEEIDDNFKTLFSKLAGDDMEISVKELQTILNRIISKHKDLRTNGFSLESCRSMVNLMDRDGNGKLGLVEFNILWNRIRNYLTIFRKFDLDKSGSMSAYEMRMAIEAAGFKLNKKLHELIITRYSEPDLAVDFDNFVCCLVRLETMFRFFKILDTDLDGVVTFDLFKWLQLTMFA
Sequence of Calpain I (Rattus norvegicus, UniProt P97571) (Q64537 whole entry partner): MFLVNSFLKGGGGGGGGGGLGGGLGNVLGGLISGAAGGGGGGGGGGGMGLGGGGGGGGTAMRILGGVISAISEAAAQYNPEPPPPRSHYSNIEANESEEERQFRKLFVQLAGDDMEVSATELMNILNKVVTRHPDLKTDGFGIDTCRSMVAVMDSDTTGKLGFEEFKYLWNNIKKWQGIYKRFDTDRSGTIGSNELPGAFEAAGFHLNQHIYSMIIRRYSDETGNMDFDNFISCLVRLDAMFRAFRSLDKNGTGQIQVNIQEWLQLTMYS
Procedure: (§1) The Halo-Ketone Peptides, like the substituted isocoumarins, are irreversible inhibitors of Calpain. We determined the Kapp /[I] values for various members of this class of compounds against Calpains I and II. For comparison, we also determined these values against the additional thiol proteases Papain and Cathepsin B for at least one Halo-Ketone Peptide.
(§2) We assayed Calpain I and II using Suc-leu-tyr-amidomethylcoumarin. Papain was assayed using benzoyl-arg-4-nitroanilide, and Cathepsin B (bovine) was assayed using CBZ-lys-4-nitrophenyl ester. We followed the progress curve method of Tian and Tsou, Biochemistry, 21:1028-1032 (1982), the disclosure of which is hereby incorporated by reference, to derive kinetic data. Briefly, this method makes use of the equation: [formula] where [P.infin. ] represents the concentration of product formed at a time approaching infinity, A is the Kapp in the presence of substrate (S), K is the Michaelis constant and [Y] is the concentration of the inhibitor. Since [S] and [Y] are known and V and K can be determined, Kapp can be readily determined.

[2] = tested on: Calpain II; assay: Kapp/[I] progress curve method, Calpain II (Table 1C); format: biochemical; set-up: unit not given here; conditions: Rabbit Calpain II, Suc-leu-tyr-amidomethylcoumarin
Procedure: as §1, §2

[3] = tested on: Calpain within platelets; assay: Platelet membrane permeation assay, spectrin proteolysis (Examples 4A, 4B); format: cell-based, rat; conditions: 100 μM, A23187 1 μM
Outline: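 Rat (Sprague-Dawley) platelets at 10^7 cells/ml in HEPES buffer pH 7.4, preincubated 5 min with inhibitor, then 5 min with 1 μM A23187 to activate calpain. Spectrin proteolysis assessed by SDS-PAGE and anti-spectrin immunoblot, quantified by densitometry.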

[4] = tested on: Calpain in crude brain extracts; assay: Ca2+-stimulated spectrin proteolysis in crude brain extracts (Example 2); format: biochemical; conditions: for inhibition of spectrin proteolysis in crude brain extracts: 100 μM
Outline: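 Brain tissue was homogenized in 10 mM Tris pH 7.4, 0.32 M sucrose, 1 mM EGTA and 1 mM DTT, and nuclei and debris were removed. Calpain activity was scored as Ca^2+-stimulated proteolysis of endogenous spectrin.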

[5] = tested on: hippocampal slices; assay: Hippocampal slice survival after 10 min anoxia (Example 7A); format: cell-based, rat
Procedure: Hippocampal slices (400 um) were prepared from Sprague Dawley rats (6 to 7 weeks) and maintained in an interface chamber at 35° C. using conventional techniques, i.e., the lower surface of the slice received a constant perfusion (0.5 ml/min) of ACSF, while the upper surface was exposed to a moist atmosphere of O2 :CO2 (95%:5%) exchanged at a rate of 2 L/min. The ACSF medium contains (in mM): NaCl (124), KCl (3), KHPO4 (2.5), CaCl (3.4), NaHCO3 (26) and D-Glucose (10). Field excitatory post-synaptic responses were recorded from stratum radiatum of CAlb in response to stimulation of Schaffer-commissural fibers in CAla or CAlc. The depth of the recording electrode was optimized and evoked responses were collected at a rate of one evoked response every 30 seconds.
For the initial screening procedure, 14 to 16 slices are harvested from the hippocampus of a single rat and placed in a common ACSF bath. Each slice is tested in sequence to determine the magnitude of its pre-anoxic evoked response. Five stimulation pulses (each 0.1 ms (millisecond) in duration) were presented over a 15 second interval. The largest evoked response was noted and recorded for each slice.
After the one hour drug incubation period, the oxygen-enriched atmosphere of the chamber was made anoxic by substituting nitrogen for oxygen (N2 =95%; CO^2 =5%). The slices were retained in this anoxic environment for 10 minutes, following which the oxygen-enriched atmosphere (O^2 =95%; CO2 =5%) was reestablished.
The slices were given the opportunity to recover for 30 minutes following reoxygenation whereupon each was stimulated and the maximum evoked potential determined, as described above during the pre-anoxia period. Those slices which, after anoxia, produced a maximum evoked potential of greater than 50% of that observed prior to anoxia were defined as surviving slices.

[6] = tested on: N18-RE-105 cells; assay: Glutamate-induced cell death, MTT conversion (Example 5); format: cell-based; conditions: 5 mM glutamate, inhibitor 3 μg/ml, 19 hours
Procedure: Stock cultures of N18-RE-105 cells were maintained in Dulbecco's modified Eagle's medium (DMEM) containing 10% fetal bovine serum (FBS) and supplemented with hypoxanthine, aminopterin and thymidine (HAT). Subconfluent cultures were split and plated into 96-well plates. Twenty-four hours after plating the cells were exposed to fresh media containing glutamate and various concentrations of Calpain inhibitors. Control cells were not treated with glutamate. Conversion of MTT was measured 19 hours later as described. Nineteen hours after the onset of exposure, cell viability was quantitated by measuring the extent to which the cells convert 3(4,5-dimethylthiazol-2-yl)-2-5-diphenyltetrazolium bromide (MTT) to a blue formazan product, which occurs in the mitochondria of living but not dead cells (Pauwels et al., 1988). A higher absorbance is indicative of greater cell viability.

[7] = tested on: hippocampal slices; assay: Hippocampal slice evoked potential recovery after anoxia (Example 7B); format: cell-based, rat
Procedure: As in Example 7A, hippocampal slices (400 μm) were prepared from Sprague Dawley rats (6-7 weeks) and maintained in an interface chamber at 35° C. using conventional techniques, i.e. the lower surface of the slice received a constant perfusion (0.5 ml/min) of an artificial cerebrospinal fluid (ACSF), while the upper surface was exposed to a moist atmosphere of O2 :CO2 (95%:5%) exchanged at a rate of 2 L/min. The ACSF medium contains (in mM): NaCl (124), KCl (3), KHPO4 (1.25), MgSO4 (2.5), CaCl2 (3.4), NaHCO3 (26) and D-Glucose (10). Field excitatory post-synaptic responses were recorded from stratum radiatum of CA1b in response to stimulation of Schaffer-commissural fibers in CA1a or CA1c. The depth of the recording electrode was optimized and evoked responses were collected at a rate of one evoked response every 30 seconds.
After establishing a stable baseline of evoked responses (approximately 10 minutes), ACSF containing Calpain Inhibitor was washed into the chamber and slices were incubated for a period of one hour. After incubation, evoked responses were again recorded and the change in the amplitude of the responses from baseline levels was noted. No effect of the inhibitors tested on baseline evoked responses was observed.
For anoxia experiments, incubation in the drug-containing medium was followed by replacement of the O2 :CO2 (95%:5%) atmosphere with N2 :CO2 (95%:5%). Slices were exposed to this anoxic environment until disappearance of the pre-synaptic fiber volley and for two minutes (severe anoxia) longer (total time in anoxic environment approximately 7-8 minutes in control case). Effects of Calpain Inhibitors on the functional recovery of the slices after the anoxic episode were then measured. Recovery of the evoked potential (EPSP) slope and amplitude by the drug treated slices can be compared to control slices to determine the relative efficacy of various Calpain Inhibitors.

[8] = tested on: rats injected with kainic acid; assay: Kainate-induced behavioral symptoms and convulsions (Example 8A); format: in vivo, rat; conditions: 12 mg/kg kainic acid i.p., 4.6 mg calpain inhibitor in DMSO i.p., observed six hours
Procedure: Rats (male Sprague-Dawley, 200±5 gms) were injected intraperitoneally with 12 mg/kg kainic acid in saline vehicle and ether 2001 μl DMSO (dimethylsulfoxide) or 4.6 mg calpain inhibitor dissolved in the same volume of DMSO.

[9] = target: T1, Calpain I (Homo sapiens, UniProt P07384); assay: Kapp/[I] progress curve method, human Calpain I (Table 1C); format: biochemical; conditions: Suc-leu-tyr-amidomethylcoumarin
T1 sequence (P07384 1-714): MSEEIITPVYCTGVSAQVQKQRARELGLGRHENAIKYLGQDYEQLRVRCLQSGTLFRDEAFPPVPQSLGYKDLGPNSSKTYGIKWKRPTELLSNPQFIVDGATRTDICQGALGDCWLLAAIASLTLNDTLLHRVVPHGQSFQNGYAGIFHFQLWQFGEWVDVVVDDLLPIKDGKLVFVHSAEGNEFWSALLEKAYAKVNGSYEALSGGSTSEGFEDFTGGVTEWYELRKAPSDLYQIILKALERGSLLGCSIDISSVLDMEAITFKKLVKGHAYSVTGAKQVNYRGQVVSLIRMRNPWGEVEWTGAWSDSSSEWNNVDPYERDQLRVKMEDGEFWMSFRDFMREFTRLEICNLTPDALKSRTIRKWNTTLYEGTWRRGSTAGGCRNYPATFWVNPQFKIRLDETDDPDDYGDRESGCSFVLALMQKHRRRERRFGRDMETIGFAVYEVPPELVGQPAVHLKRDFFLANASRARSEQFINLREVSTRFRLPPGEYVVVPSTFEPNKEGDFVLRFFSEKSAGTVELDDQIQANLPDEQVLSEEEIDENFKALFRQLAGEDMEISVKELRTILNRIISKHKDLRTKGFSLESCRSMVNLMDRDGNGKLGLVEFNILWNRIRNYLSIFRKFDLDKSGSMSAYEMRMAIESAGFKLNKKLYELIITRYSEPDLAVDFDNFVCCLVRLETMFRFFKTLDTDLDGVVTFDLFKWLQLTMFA
T1 sequence (P04632 1-268 partner): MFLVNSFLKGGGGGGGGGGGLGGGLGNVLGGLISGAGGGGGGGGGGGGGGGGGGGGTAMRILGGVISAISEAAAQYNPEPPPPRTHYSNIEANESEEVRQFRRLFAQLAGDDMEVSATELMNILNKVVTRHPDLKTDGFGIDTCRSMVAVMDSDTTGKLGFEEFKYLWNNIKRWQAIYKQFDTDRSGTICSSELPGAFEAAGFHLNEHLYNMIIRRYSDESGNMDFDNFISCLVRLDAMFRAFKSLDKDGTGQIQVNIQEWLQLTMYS
Procedure: as §1, §2

SMILES	Kapp/[I] CI [1]	Kapp/[I] CII [2]	inhibition of Calpain within platelets [3]	inhibition of spectrin proteolysis in crude brain extracts [4]	protection of slices from anoxia (FIG. 3) ([5]; 10 minutes anoxic atmosphere)	Survival of slices after ten minutes anoxia ([5]; Dose 200 μM, incubation 2 hours)	blue formazan product relative to control without glutamate [6]	% Recovery of synaptic transmission after anoxia ([7]; Concentration 200, ten minutes anoxia)	period of anoxia required to produce fiber volley disappearance (FIG. 6) ([7]; hippocampal slices)	inhibition in the system of Example 2 ([4]; concentration not given)	kainate-induced behavioral symptoms and convulsions (FIG. 7) [8]	Kapp/[I] CI [9]
CC(C)C[C@H](NC(=O)CNC(=O)OCc1ccccc1)C(=O)N[C@@H](Cc1ccccc1)C(=O)CCl [Z-Gly-Leu-Phe-CH2 Cl, reference compound] (HELM PEPTIDE1{[O=C(OCc1ccccc1)[*:2]].G.L.F.[ClC[*:1]]}$$$$V2.0)	284000	946000	significant inhibition	significant inhibition	–	–	–	–	–	–	–	–
CC(=O)N[C@@H](CC(C)C)C(=O)N[C@@H](Cc1ccccc1)C(=O)CCl [Ac-Leu-Phe-CH2 Cl] (HELM PEPTIDE1{[ac].L.F.[ClC[*:1]]}$$$$V2.0)	25900	33400	significant inhibition	significant inhibition	–	–	–	–	–	–	–	–
CCCC[C@@H](C=O)NC(=O)[C@H](CC(C)C)NC(=O)[C@H](CC(C)C)NC(C)=O [CI1, Ac-Leu-Leu-Nle-H, reference compound] (Ac-Leu-Leu-[Nle]-aldehyde)	–	–	–	–	protected from the effects of anoxia	53%	protect N18-RE-105 cells against glutamate toxicity	35%	does not significantly lengthen the period of anoxia required to suppress electrical activity	showed inhibition	incidence and severity of convulsions was reduced	–
CC(C)CC(NC(=O)OCc1ccccc1)C(=O)NC(Cc1ccccc1)C(=O)CCl (stereo not drawn) [Z-Leu-Phe-CH2 Cl] (Cbz-Leu-Phe-CH2Cl; configuration not given here)	–	585000	significant inhibition	significant inhibition	–	–	–	–	–	–	–	225000
